# Measurements: patent US8188080B2 (Sanford-Burnham Medical Research Institute, priority 2007, dated 2012)
# Where two headings read alike, the source gives them in different places.
# What was measured:
# Type in all cases: biochemical
# VHR = VHR (Homo sapiens, UniProt P51452); assay: PTP-catalyzed hydrolysis of DiFMUP, IC50 determination (VHR); conditions: DiFMUP at Km, pH 6.0, 30° C.
# Experimental: (§1) The PTP-catalyzed hydrolysis of 6,8-difluoro-4-methylumbelliferyl phosphate (DiFMUP) in the presence of the test compound is assayed at 30° C. in a 60 μL 96 well format reaction system in 0.15 M Bis-Tris, pH 6.0 assay buffer having an ionic strength of 150 mM (adjusted with NaCl) and containing 1 mM dithiotreitol and 5% DMSO. At various concentrations of the compound, the initial rate at fixed DiFMUP concentration (equal to the corresponding Km value for each PTP) was determined using a FLx800 micro plate reader (Bio-Tek Instruments, Inc.), an excitation wave length of 360 nm and measuring the emission of the fluorescent reaction product 6,8-difluoro-7-hydroxy-4-methylcoumarin (DiFMU) at 460 nm. The nonenzymatic hydrolysis of the substrate was corrected by measuring the control without addition of enzyme. The IC50 value was determined by plotting the relative activity versus inhibitor concentrations and fitting to Equation 1 using the software GraphPad Prism™ (GraphPad Software, Inc.).
# (§2) [formula] In this case, Vi, is the reaction velocity when the inhibitor concentration is [I], V0 is the reaction velocity with no inhibitor and IC50=Ki+Ki[S]/Km.
# CD45 = molecular target: T1, CD45 (Homo sapiens, UniProt P08575); assay: PTP-catalyzed hydrolysis of DiFMUP, IC50 determination (CD45)
# T1 sequence (P08575 26-1306): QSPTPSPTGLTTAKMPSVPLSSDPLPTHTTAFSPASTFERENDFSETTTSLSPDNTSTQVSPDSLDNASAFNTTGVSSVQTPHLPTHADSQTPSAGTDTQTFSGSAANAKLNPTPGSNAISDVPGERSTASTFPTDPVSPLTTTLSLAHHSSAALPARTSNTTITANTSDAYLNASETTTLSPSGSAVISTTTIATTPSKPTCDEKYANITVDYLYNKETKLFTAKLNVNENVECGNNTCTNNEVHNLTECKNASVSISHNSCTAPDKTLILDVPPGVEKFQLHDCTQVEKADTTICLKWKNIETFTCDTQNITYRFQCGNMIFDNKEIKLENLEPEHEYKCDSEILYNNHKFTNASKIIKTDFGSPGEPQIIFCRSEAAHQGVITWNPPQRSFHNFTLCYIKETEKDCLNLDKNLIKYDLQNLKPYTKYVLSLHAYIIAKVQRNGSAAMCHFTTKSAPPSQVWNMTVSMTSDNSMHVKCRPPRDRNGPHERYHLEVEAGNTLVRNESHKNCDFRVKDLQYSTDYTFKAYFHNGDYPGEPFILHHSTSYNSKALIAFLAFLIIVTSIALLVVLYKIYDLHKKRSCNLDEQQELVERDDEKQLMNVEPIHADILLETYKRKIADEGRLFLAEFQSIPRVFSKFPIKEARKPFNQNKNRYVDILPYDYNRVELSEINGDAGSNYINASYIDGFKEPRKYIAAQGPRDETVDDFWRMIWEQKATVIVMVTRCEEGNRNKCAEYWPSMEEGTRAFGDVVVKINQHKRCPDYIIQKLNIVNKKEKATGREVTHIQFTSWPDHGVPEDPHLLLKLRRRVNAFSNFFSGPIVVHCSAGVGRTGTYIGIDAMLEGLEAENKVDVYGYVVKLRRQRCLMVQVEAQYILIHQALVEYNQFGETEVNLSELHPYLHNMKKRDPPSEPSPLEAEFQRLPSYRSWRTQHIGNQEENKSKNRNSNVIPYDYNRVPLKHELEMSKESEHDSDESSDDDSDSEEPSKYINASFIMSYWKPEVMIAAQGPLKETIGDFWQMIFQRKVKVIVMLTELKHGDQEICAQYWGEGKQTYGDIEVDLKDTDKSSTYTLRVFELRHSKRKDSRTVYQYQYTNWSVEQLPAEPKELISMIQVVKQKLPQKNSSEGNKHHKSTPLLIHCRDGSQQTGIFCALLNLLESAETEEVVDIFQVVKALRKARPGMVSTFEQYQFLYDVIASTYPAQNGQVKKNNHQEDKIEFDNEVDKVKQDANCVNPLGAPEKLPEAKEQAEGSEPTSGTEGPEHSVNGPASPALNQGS
# Experimental: as §1, §2
# HePTP = molecular target: T2, HePTP (Homo sapiens, UniProt P35236); assay: PTP-catalyzed hydrolysis of DiFMUP, IC50 determination (HePTP)
# T2 sequence (P35236 1-360): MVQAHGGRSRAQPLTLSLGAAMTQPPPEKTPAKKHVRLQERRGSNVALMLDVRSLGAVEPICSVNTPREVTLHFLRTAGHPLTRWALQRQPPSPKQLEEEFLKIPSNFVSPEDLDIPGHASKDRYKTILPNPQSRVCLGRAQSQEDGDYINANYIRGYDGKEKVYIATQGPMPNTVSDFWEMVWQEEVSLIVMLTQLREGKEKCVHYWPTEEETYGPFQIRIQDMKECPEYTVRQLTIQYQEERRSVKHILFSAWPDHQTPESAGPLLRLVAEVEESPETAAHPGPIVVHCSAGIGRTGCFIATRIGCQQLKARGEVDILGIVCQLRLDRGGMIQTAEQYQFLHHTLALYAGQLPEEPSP
# Experimental: as §1, §2
# PTP1B = molecular target: T3, PTP1B (Homo sapiens, UniProt P18031); assay: PTP-catalyzed hydrolysis of DiFMUP, IC50 determination (PTP1B)
# T3 sequence (P18031 1-435): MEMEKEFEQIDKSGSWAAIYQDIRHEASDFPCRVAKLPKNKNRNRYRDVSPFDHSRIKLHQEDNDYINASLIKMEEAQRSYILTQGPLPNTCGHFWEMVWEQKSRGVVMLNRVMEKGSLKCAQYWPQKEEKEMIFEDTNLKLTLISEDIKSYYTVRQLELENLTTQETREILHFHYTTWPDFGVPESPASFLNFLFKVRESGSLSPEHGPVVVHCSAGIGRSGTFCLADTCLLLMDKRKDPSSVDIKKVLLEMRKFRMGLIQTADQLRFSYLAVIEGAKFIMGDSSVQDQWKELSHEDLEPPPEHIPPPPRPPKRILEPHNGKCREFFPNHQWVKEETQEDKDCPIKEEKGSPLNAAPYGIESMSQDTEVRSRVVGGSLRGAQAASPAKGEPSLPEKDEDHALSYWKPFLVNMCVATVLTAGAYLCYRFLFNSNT
# Experimental: as §1, §2
# [1] = Table II, DiFMUP at Km, pH 6.0, 30° C.
# Sequence of VHR (P51452 whole entry): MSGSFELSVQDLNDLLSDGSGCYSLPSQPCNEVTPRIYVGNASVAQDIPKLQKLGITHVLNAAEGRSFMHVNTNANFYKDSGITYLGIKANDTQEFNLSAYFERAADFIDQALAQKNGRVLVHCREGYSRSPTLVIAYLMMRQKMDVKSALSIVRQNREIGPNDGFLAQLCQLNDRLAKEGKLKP
IC50 (CD45) [nM],Compound,"IC50 (VHR; Table I, read-out: IC50) [nM]","IC50 (VHR; Table II, read-out: IC50 VHR) [nM]",IC50 (CD45; [1]) [nM],IC50 (HePTP) [nM],IC50 (PTP1B) [nM],IC50 (HePTP; [1]) [nM],IC50 (PTP1B; [1]) [nM]
–,O=C1/C(=C/c2cn(-c3ccccc3)nc2-c2ccc(OCc3ccccc3)cc2)SC(=S)N1CCS(=O)(=O)O [Compound 9],78,78,609,1520,1750,–,–
–,"O=C1/C(=C/c2cn(-c3ccccc3)nc2-c2ccc(OCc3ccc(Cl)cc3)cc2)SC(=S)N1CCS(=O)(=O)O [Compound 10, (Z)-2-[5-({3-[4-(4-chlorobenzyloxy)phenyl]-1-phenyl-1H-pyrazol-4-yl}methylene)-4-oxo-2-thioxothiazolidin-3-yl]ethane sulfonic acid]",18,18,460,–,–,622,456
303,O=C1/C(=C/c2cn(-c3ccccc3)nc2-c2ccc(S(=O)(=O)N3CCOCC3)cc2)SC(=S)N1CCS(=O)(=O)O [Compound 14],2440,71,–,1160,592,–,–
